Source: ChEMBL document CHEMBL1156314, “Synthesis and structure-activity relationships of antimalarial 4-oxo-3-carboxyl quinolones” (Bioorg Med Chem, 2010)

Experiments:
[1] = Membrane permeability at 10 uM at pH 4 by PAMPA method; format: ADME; conditions: read-out: permeability
in vitro = conditions: PAMPA, pH 7.4
[2] = pampa, pH 7.4, 10 µM

Row | SMILES | Papp at 10 µM [1] [×10⁻⁶ cm/s] | permeability [2] | other results
1 | CCOC(=O)c1cc2c(OC)cccc2nc1-c1ccc2c(c1)OCO2 | 500 | – | –
2 | CCOC(=O)c1c(-c2cccc([N+](=O)[O-])c2)[nH]c2cccc(OC)c2c1=O | – | – | permeability at 10 µM (in vitro): 110 ×10⁻⁶ cm/s
3 | NC(=O)N1c2ccccc2C=Cc2ccccc21 [CARBAMAZEPINE] | – | 145 10^-6 cm/s | –

The next lines start with results.

Row | Papp at 10 µM [1] [×10⁻⁶ cm/s] | permeability [2] | SMILES | other results
4 | 500 | – | CCOC(=O)c1c(-c2ccc3c(c2)OCO3)nc2cc(OC)ccc2c1Cl | –
5 | – | 1.2 10^-6 cm/s | CNC(=C[N+](=O)[O-])NCCSCc1ccc(CN(C)C)o1.Cl [RANITIDINE HYDROCHLORIDE] | –
